PMC7217877, “N-AS-triggered SPMs are direct regulators of microglia in a model of Alzheimer’s disease” (Nature Communications, 2020)
Where a chain is given by its changes, count along the chain named. Where “and” joins values, the source holds several entries; their conditions need not be identical. Equal entries are not always repeated.

What was measured:
COX2 WT = biological target: T1, COX2 WT (Homo sapiens, UniProt P35354); test: filter binding assay of [14C] N-AS to COX2; conditions: COX2 Control, replicates
T1 construct: His (N); made in house
T1 sequence (P35354 18-604): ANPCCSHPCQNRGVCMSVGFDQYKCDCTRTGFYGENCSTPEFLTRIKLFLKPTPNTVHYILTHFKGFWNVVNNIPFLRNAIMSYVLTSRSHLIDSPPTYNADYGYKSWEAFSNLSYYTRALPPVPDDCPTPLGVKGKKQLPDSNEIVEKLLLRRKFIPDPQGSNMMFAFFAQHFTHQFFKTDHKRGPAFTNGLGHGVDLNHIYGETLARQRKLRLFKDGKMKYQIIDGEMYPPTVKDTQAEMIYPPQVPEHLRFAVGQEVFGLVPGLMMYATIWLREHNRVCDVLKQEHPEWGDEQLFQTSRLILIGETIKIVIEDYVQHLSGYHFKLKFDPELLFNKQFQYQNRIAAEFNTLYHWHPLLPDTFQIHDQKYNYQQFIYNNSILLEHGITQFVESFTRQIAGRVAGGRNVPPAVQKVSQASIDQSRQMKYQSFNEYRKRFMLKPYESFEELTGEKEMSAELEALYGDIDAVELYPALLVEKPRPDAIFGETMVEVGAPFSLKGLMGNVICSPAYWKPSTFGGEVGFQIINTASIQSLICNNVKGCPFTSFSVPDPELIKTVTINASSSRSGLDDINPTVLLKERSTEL
Description: (§1) Single point mutations in SphK1 (R56A, R57A, R24A, R185A, D178A, and F192A) and COX2 (S565A, N181A, T564A, and S567A) were generated using the In-Fusion Cloning Kits (Clontech) and ORF cDNA expression plasmids of human SphK1 and COX2 gene (Sino Biological Inc, HG15679-NH and HG12036-NH), according to the manufacturer’s instructions. The forward and reverse primers described in Supplementary Table 4. The SphK1 WT, SphK1 mutants, COX2 WT, and COX2 mutant plasmids were transformed in the One shot TOP 10 competent cell (Invitrogen). The bacteria were grown in Luria-Bertani (LB, Invitrogen) plates supplemented with 50 μg ml^−1 kanamycin (Sigma-Aldrich) at 37 °C. The bacterial cell pellets were resuspended in lysis buffer containing 20 mM sodium phosphate (GE Healthcare), 500 mM NaCl (GE Healthcare), 20 mM imidazole (pH 7.4) (GE Healthcare), 0.2 mg ml^−1 lysozyme (Sigma-Aldrich), 20 μg ml^−1 DNase I (Roche), 1 mM MgCl2 (Sigma-Aldrich), and 1 mM PMSF (Sigma-Aldrich) before being lysed by sonication and clarified by centrifugation at 15,493×g for 10 min. Proteins were purified from the soluble fraction using His-Spin Trap columns (GE Healthcare) and the binding and acetylation assays were performed.
(§2) Briefly, SphK1 WT and mutant enzymes (1 mU) were resuspended in 100 μl reaction buffer (20 mM HEPES; pH 7.4, 50 mM NaCl, 10 mM MgCl2, 1 mM EGTA, 0.02% Triton-X100, and 100 μM sphingosine, all from Sigma-Aldrich). […] Briefly, COX2 WT and mutant enzymes (1 mU) were resuspended in 100 μl reaction buffer (20 mM HEPES; pH 7.4, 50 mM NaCl, 10 mM MgCl2, 1 mM EGTA, and 0.02% Triton-X100, all from Sigma-Aldrich). Reactions were initiated by adding [^14C] N-AS (1–200 μM (0.1–20 μCi), ARC UK Ltd, ARC-1024) and incubated at 37 °C for 1 h. The reactions were terminated by adding 100 μl of ice-cold reaction buffer containing 5 mM cold N-AS and immediately filtered through P30 filtermat (Perkin-Elmer), followed by five washes.
(§3) The binding velocity was plotted and the Kcat and KM values were calculated from the Michaelis-Menten analysis using the Sigma-plot program (ver 10.0, Systat software Inc.).

COX2 N181A = biological target: T2, COX2 N181A (Homo sapiens, UniProt P35354, N181A); test: filter binding assay of [14C] N-AS to COX2; conditions: replicates
T2 construct: His (N); made in house
T2 sequence (P35354 18-604 N181A): T1 sequence (P35354 18-604) with N164A
Description: as §1, §2, §3

CCCCCCCCCCCCC/C=C/[C@@H](O)[C@H](CO)NC(C)=O [N-AS, N-((2S,3R,E)-1,3-Dihydroxyoctadec-4-en-2-yl)acetamide]
binding velocity (Vbinding) (COX2 WT; 1 uM (100 pmol)): 0.888 nM/min and 1.293 nM/min and 0.920 nM/min | binding velocity (Vbinding) (COX2 WT; 5 uM (500 pmol)): 5.664 nM/min and 7.362 nM/min and 11.711 nM/min | binding velocity (Vbinding) (COX2 WT; 10 uM (1000 pmol)): 14.955 nM/min and 10.446 nM/min and 14.278 nM/min | binding velocity (Vbinding) (COX2 WT; 20 uM (2000 pmol)): 30.848 nM/min and 29.462 nM/min and 25.197 nM/min | binding velocity (Vbinding) (COX2 WT; 100 uM (10000 pmol)): 52.281 nM/min and 47.667 nM/min and 52.002 nM/min | binding velocity (Vbinding) (COX2 WT; 200 uM (20000 pmol)): 58.338 nM/min and 57.809 nM/min and 65.044 nM/min | binding velocity (Vbinding) (COX2 N181A; 1 uM): 0.642 nM/min and 0.892 nM/min and 0.879 nM/min | binding velocity (Vbinding) (COX2 N181A; 5 uM): 7.037 nM/min and 14.518 nM/min and 5.980 nM/min | binding velocity (Vbinding) (COX2 N181A; 10 uM): 11.465 nM/min and 12.134 nM/min and 6.758 nM/min | binding velocity (Vbinding) (COX2 N181A; 20 uM): 15.248 nM/min and 14.109 nM/min and 13.356 nM/min | binding velocity (Vbinding) (COX2 N181A; 100 uM): 24.771 nM/min and 29.019 nM/min and 25.078 nM/min | binding velocity (Vbinding) (COX2 N181A; 200 uM): 41.872 nM/min and 40.849 nM/min and 37.213 nM/min
